Data taken from US20250281424A1 (New York Blood Center, Inc, priority 2020, published 2025).

Tested on: plasma protein
Assay: Plasma protein binding (PPB, mouse)
Format: in vitro ADME
Source text: Certain exemplified compounds were examined for ADMET (absorption, distribution, metabolism, excretion and toxicity) profiling using conventional assays with the results shown in the Tables 3A-3C below.

SMILES: CCOC(=O)C1C(=O)c2ccc(C(=O)c3ccc4c(c3)C(=O)C(C(=O)OCC)C4=O)cc2C1=O (stereo not shown) [Example 3, diethyl 5,5′-carbonylbis(1,3-dioxo-2,3-dihydro-1h-indene-2-carboxylate)]
- protein binding: high protein binding
